Assay results as given in article PMC12666486, “Novel dimeric dual-modality FAP-targeted agents with favorable tumor retention for image-guided surgery: a preclinical study” (European Journal of Nuclear Medicine and Molecular Imaging, 2025).
Values belong to the molecule of their own block, whether it stands above or below them.

Key:
[1] = set-up: method as in manufacturers; details: unconjugated dyes; ref manufacturers; cited from earlier work
[2] = ref 3 (supplement); cited from earlier work
HT1080hFAP cells = assay: Radioactive-based cell efflux study; set-up: species or system human; details: 2 h post-initial incubation
Method: For cell efflux studies, 1.0 × 10^6 HT1080hFAP cells were seeded in 6-well plates and cultivated for 48 h. On the day of the experiment, the cells in each well were washed twice with 1.5 mL of culturing medium and then incubated with the Gallium-68 labelled radiotracer at a final concentration of 1 nM/well for 1 h at 37 °C. The medium containing the unbound radiotracer was then replaced with either fresh medium or a 1 µM FAPI-46 solution in cell medium for blocking condition.
Subsequently, at specific time points, the radioactive medium was removed and collected together with two PBS/0.5% (w/v) BSA washes before adding 1 mL of fresh medium or FAPI-46 blocking solution. Finally, 2 h after the end of the first incubation, the cells were lyzed with 1 mL of 1 M NaOH. All collected fractions were measured in the γ-counter and the percentage of cell-associated activity at different time points relative to the total, corresponding to 1 h after incubation, was reported. The number of experimental replicates performed for each assay is specified in the respective figure legends.

HT1080hFAP tumor = assay: Static PET/CT imaging of xenografted mice; format: in vivo, BALB/c nude mice; details: 1.0 nmol, one mouse per compound
Method: For the induction of tumor xenografts, 2 × 10^6 of HT1080hFAP or HT1080 cells in 100 μL appropriate medium were subcutaneously injected in the right and left flank of each mouse (athymic female BALB/c nude), respectively. The tumors were allowed to grow until they had reached a volume of 0.3 to 0.8 cm^3. […] To evaluate ex vivo biodistribution on tumor models, 3 mouse xenografts were injected with 0.25 nmol of Gallium-67 labelled tracer (0.4 MBq) and then sacrificed after 1 h, 4 h and 1 day. For the PET/CT imaging study one xenograft-bearing mouse (tumor volume in the range 0.6–1.0 cm^3) was injected with 1.0 nmol of Gallium-68 labelled tracer (5–8 MBq). […] The images were visualized, processed, and quantified in Mediso InterView FUSION (Mediso Medical Imaging Systems, Budapest, Hungary). […] The results were expressed as percentages of injected dose per gram tissue (% ID/g). For the comparative imaging study (SPECT and in vivo fluorescence imaging), one xenograft-bearing mouse (tumor volume in the range 0.2–0.7 cm^3) was injected with 1.5–2 nmol of Gallium-67 tracer (15–17 MBq) and imaged at various time points up to 2 days p.i. […] The images were visualized, processed, and quantified in Mediso InterView FUSION (Mediso Medical Imaging Systems, Budapest, Hungary). […] The fluorescence emission was reported as photons/s/mm^2.

Compound: CC1(C)C(=CC=C2CCCC(C=CC3=[N+](CCCCCC(=O)[O-])c4ccc(S(=O)(=O)[O-])cc4C3(C)C)=C2Oc2ccc(S(=O)(=O)[O-])cc2)N(CCCCS(=O)(=O)[O-])c2ccc(S(=O)(=O)[O-])cc21.[Na+].[Na+].[Na+].[Na+] [IRDye-800CW]
Stokes shift [1]: 17
λEm (nm) [1]: 792 nm
λEx (nm) [1]: 775 nm

Compound: CC(=O)NC1CCCN(O)C(=O)/C=C(/C)CCOC(=O)C(NC(C)=O)CCCN(O)C(=O)/C=C(/C)CCOC(=O)C(NC(C)=O)CCCN(O)C(=O)/C=C(/C)CCOC1=O (centres unmarked) [TAFC]
LogDpH7.4 [2]: -2.08 ± 0.02

Compound: CC1(C)C(=CC=C2CCCC(C=CC3=[N+](CCC[N+](C)(C)C)c4ccc(S(=O)(=O)O)cc4C3(C)C)=C2Oc2ccc(CCC(=O)O)cc2)N(CCC[N+](C)(C)C)c2ccc(S(=O)(=O)O)cc21 [ZW800]
Stokes shift [1]: 18
λEm (nm) [1]: 786 nm
λEx (nm) [1]: 768 nm

%ID/g in FAP(+)T (PET/CT, manually drawn ROI) (HT1080hFAP tumor; 1h p.i.): 3.4 %ID/g
%ID/g in FAP(+)T (PET/CT, manually drawn ROI) (HT1080hFAP tumor; 2h p.i.): 3.1 %ID/g
Compound: CN(CCCN1CCN(C(=O)CN2CCN(CC(=O)[O-])CCN(CC(=O)[O-])CCN(CC(=O)[O-])CC2)CC1)c1ccc2nccc(C(=O)NCC(=O)N3CC(F)(F)C[C@H]3C#N)c2c1.[68Ga+3] [[^68Ga]Ga-FAPI-46]
Retained activity, % of the internalized fraction (HT1080hFAP cells; blocking with 1 µM FAPI-46, 1 nM): 9.4 ± 1.5%
Retained activity, % of the internalized fraction (HT1080hFAP cells; without blocking, 1 nM): 21.9 ± 1.4%
